Reference: US5298488A, “CM-chitin derivatives and use thereof” (Fuji Photo Film Co., Ltd., priority 1990, dated 1994)
No end group written: not given here. succinylated CM‑Chitin = succinylated CM-chitin

Assays:
[1] = system: vitronectin; test: Cell adhesion-inhibitory test against vitronectin (competitive assay, number of adhered cells); assay type: cell-based, human; conditions: endothelium cells of blood vessel, 37° C., one hour, 0 control 249
From the text: (§1) A method for determining the activity of the CM-chitin derivatives of the present invention for inhibiting adhesion of cells to fibronectin or vitronectin will be described below. The competitive assays used herein have widely been employed tin the field of biochemistry and are detailed in, for instance, "Method in Enzymology", 1981, 82, pp. 803-831; and J. P. KOKAI Nos. Hei 1-309682 and Hei 2-174797.
(§2) Commercially available fibroneotin (derived from human; purchased from Seikaqaku Kogyo K. K.) and vitronectin (derived from human; purchased from Funakoshi Co., Ltd.) each was diluted to 1.0 μ1/ml and 2.0 μ1/ml with PBS (NaH2 PO4 0.005 M+NaCl 0.07 M), 0.5 ml of the resulting diluted solution was dispensed into a plastic plate having 24 wells and incubated at 37° C. overnight to perform coating of the plate. Then bovine serum albumin (BSA 1%) was added followed by incubation at 37° C. for one hour for inhibiting the occurrence of nonspecific adsorption, then washing with PBS in the usual manner and sufficient drainage to give an adsorption plate.
[…] Each of the solutions (0.25 ml) was dispensed to the plate prepared above, 0.25 ml of a suspension of endothelium cells of blood vessel (4×10^6 cells/ml) was added to the plate and incubated at 37° C. for one hour to thus cause cohesion of the cells. The plate was washed three times with DMEM medium to remove non-adhesive cells, then the adhered cells were peeled off with a 0.025% EDTA trypsin solution and stained with a 2% Trypan Blue solution to determine the number of the adhered cells.

[2] = system: fibronectin; test: Cell adhesion-inhibitory test against fibronectin (competitive assay, number of adhered cells); assay type: cell-based, human; conditions: endothelium cells of blood vessel, 37° C., one hour, 0 mg/ml control 160
From the text: as §1, §2
A CM-chitin derivative obtained through lyophilization was diluted with Dulbecco's Modified Eagles Medium (hereunder referred to as "DMEM") to give solutions of the CM-chitin derivative having concentrations of 0, 0.25, 0.5, 1.0 and 1.5 mg/ml respectively. Each of the solutions (0.25 ml) was dispensed to the plate prepared above, 0.25 ml of a suspension of endothelium cells of blood vessel (4×10^6 cells/ml) was added to the plate and incubated at 37° C. for one hour to thus cause cohesion of the cells. The plate was washed three times with DMEM medium to remove non-adhesive cells, then the adhered cells were peeled off with a 0.025% EDTA trypsin solution and stained with a 2% Trypan Blue solution to determine the number of the adhered cells.

[3] = system: human plasma rich in platelet; test: Platelet coagulation-inhibitory activity in vitro, transmittance by aggregometer; assay type: cell-based; conditions: 37° C., 3 minutes preincubation; for Platelet Coagulation-Inhibitory Action IC50, ADP Stimulation: ADP stimulation (50 μM ADP solution); for Platelet Coagulation-Inhibitory Action IC50, Collagen Stimulation: collagen stimulation (200 μg/ml collagen solution)
Protocol: The platelet coagulation-inhibitory effect of the CM-chitin derivative of the present invention was assayed, in vitro, using human plasma rich in platelet. The experimental method will be described below.
To fresh human blood, there was added 1/9 volume of a 3.8% sodium citrate solution, the resulting mixture was centrifuged (1000 rpm; for 10 minutes) and the upper layer was separated as a plasma rich in platelet. A lyophilized CM-chitin derivative was dissolved in physiological saline to give a plurality of solutions having various concentrations ranging from 0 to 1.5 mg/ml. Each of the solutions (25 μ1) was added to 200 µl of the plasma, incubated at 37° C. for 3 minutes, then a 50 μM of ADP (adenosine diphosphate) solution or a 200 μg/ml collagen solution was added to determine the extent of coagulation in terms of transmittance determined by an aggregometer.
Rate of Coagulation Inhibition=(1-T/T .)×100%
T . : transmittance observed when a salt of CM-chitin derivative was not added.
T : transmittance observed when a salt of CM-chitin derivative was added.

[4] = concentration 10 mg/ml (so in the source)
[5] = concentration 50 mg/ml (so in the source)
[6] = concentration 100 mg/ml (so in the source)
[7] = concentration 300 mg/ml (so in the source)

Row | Substance | Cell Adhesion-Inhibitory effect Against Vitronectin (number of adhered cells) [1, 4] [cell/well] | Cell Adhesion-Inhibitory effect Against Vitronectin (number of adhered cells) [1, 5] [cell/well] | Cell Adhesion-Inhibitory effect Against Vitronectin (number of adhered cells) [1, 6] [cell/well] | Cell Adhesion-Inhibitory effect Against Vitronectin (number of adhered cells) [1, 7] [cell/well] | Cell Adhesion-Inhibitory effect Against Fibronectin (number of adhered cells) ([2]; concentration 0.5 mg/ml) [cell/well] | Cell Adhesion-Inhibitory effect Against Fibronectin (number of adhered cells) ([2]; concentration 1.0 mg/ml) [cell/well] | Cell Adhesion-Inhibitory effect Against Fibronectin (number of adhered cells) ([2]; concentration 1.5 mg/ml) [cell/well] | Cell Adhesion-Inhibitory effect Against Fibronectin (number of adhered cells) ([2]; concentration .25 mg/ml) [cell/well] | Platelet Coagulation-Inhibitory Action IC50, ADP Stimulation [3] [µg/mL] | Platelet Coagulation-Inhibitory Action IC50, Collagen Stimulation [3] [µg/mL]
1 | Succinylated CM-Chitin-(Arg-Gly-Asp)2 ({succinylated CM‑Chitin}-RGDRGD) [CM--chitin derivative-10] | 136 | 86 | 71 | 43 | 110 | 87 | 73 | 122 | 20 | 13
2 | Succinylated CM-Chitin Gly-Arg-Gly-Asp-Ser (GRGDS; also: conjugated to succinylated CM-chitin) [CM--chitin derivative-8] | 130 | 95 | 69 | 47 | 113 | 80 | 59 | 130 | 24 | 14
